According to patent publication US11072633B2 (priority 2016, dated 2021):
In brackets after ≈: the same amount, converted by molar mass. Read-outs that look alike come from different tables or passages of the source.

Columns and labels:
RIF-R2 (ATCC35838) = experiment: microbe, parasite or virus in culture; format: cell-based; settings: Mycobacterium tuberculosis, single drug
M. tuberculosis CDC1551 [1] = experiment: microbe, parasite or virus in culture; format: cell-based; settings: for MIC: Mycobacterium tuberculosis; for Aerobic MIC of CLOF: CLOF with 10 μM 6-azasteroid
Mtb = experiment: Isoniazid MIC shift on Mtb MIC plates (broth microdilution MIC); format: cell-based, M. tuberculosis; settings: for MIC: Mycobacterium tuberculosis
M. tuberculosis CDC1551 [2] = experiment: In vitro kill kinetics / time-kill (FIG. 2, FIG. 3); format: cell-based; settings: for rapid killing with mono-treatment: mono-treatment at 10-20 μM, 15 days, FIG. 2
in vitro [3] = settings: both, human, microsomes, pH 7.4
[4] = Metabolic stability in human liver microsomes; settings: both, pH 7.4
hERG = target: T1, hERG (Homo sapiens, UniProt Q12809); experiment: hERG assay (hERG currents in HEK 293 cells); format: cell-based; settings: hERG stably expressed HEK 293 cells
T1 construct: expressed in transfected cells
T1 sequence (Q12809 whole entry): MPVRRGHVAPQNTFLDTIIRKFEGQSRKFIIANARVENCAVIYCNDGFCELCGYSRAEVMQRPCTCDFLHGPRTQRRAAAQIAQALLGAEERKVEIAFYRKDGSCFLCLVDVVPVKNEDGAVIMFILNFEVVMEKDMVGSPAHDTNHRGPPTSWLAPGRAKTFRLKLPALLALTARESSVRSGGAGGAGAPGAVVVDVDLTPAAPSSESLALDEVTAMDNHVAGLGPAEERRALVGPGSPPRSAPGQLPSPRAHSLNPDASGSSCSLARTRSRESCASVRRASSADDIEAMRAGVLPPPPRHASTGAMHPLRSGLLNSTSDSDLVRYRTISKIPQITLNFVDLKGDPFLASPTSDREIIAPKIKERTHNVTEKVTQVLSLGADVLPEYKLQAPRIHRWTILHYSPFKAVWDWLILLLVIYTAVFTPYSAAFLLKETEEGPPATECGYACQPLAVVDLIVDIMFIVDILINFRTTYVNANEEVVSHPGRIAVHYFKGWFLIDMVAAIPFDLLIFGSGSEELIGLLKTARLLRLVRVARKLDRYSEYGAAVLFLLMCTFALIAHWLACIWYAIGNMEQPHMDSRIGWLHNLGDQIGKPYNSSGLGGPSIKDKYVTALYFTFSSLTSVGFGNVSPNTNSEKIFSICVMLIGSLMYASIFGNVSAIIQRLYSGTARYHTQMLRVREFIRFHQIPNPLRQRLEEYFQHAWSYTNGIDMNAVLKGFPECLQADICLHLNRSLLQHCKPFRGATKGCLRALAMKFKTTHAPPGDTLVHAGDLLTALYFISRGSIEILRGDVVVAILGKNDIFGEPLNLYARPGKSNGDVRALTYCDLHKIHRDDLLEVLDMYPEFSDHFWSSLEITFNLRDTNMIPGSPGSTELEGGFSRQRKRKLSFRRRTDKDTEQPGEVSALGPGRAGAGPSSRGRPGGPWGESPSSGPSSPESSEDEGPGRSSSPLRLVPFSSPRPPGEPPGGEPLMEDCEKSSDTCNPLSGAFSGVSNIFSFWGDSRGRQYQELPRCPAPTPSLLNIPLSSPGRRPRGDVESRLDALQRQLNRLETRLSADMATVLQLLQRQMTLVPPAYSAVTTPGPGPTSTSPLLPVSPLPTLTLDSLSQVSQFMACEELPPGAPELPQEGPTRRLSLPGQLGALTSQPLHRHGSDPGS
Experimental: hERG stably expressed HEK 293 cells were seeded at 5×10^5 cells/per 6 cm cell culture dish and induced with doxycycline at 1 μg/mL for 48 hours. Compound at the final concentrations of 30, 10, 3.33, 1.11 and 0.37 μM was applied to the cells accumulatively, post-compound hERG currents were recorded, and IC50 was calculated. Dofetilide was used as a positive control.
To predict the potential cardiotoxic effects of 6-azastroids, human ether-a-go-go related gene (hERG) assay was applied to 100, 107 and 114 (Table 9). Cytotoxicity of 107 was also assessed (Table 10).

[5] = both, human, microsomes, 2 μM, pH 7.4; for Remaining Percentage with NADPH, 0 min: 0 h; for Remaining Percentage with NADPH, 15 min: 0.25 h; for Remaining Percentage with NADPH, 30 min: 0.5 h; for Remaining Percentage with NADPH, 45 min: 0.75 h; for Remaining Percentage with NADPH, 60 min: 1 h
[6] = human liver microsomes, value by Frye (Frye, S. V. 2006); cited from earlier work
[7] = system: luminescent strain of H37Rv in infected J774A.1 cells; experiment: microbe, parasite or virus in culture; format: cell-based, M. tuberculosis; settings: for IC50 / IC90: Mycobacterium tuberculosis, H37RV, J774.A1, single compound, 72 h treatment
[8] = system: M. tuberculosis constitutively expressing the luxABCDE operon; experiment: microbe, parasite or virus in culture; format: cell-based; settings: for MIC: Mycobacterium tuberculosis, read-out: LORA MIC of INH; for activity under low oxygen conditions: in combination with isoniazid
M. tuberculosis = experiment: Minimum Bactericidal Concentration (MBC); format: cell-based; settings: Mycobacterium tuberculosis
[9] = 10 mg/kg IP injection once per day, seven days per week, for 40 days
Caco-2 cell line = experiment: in vitro; format: in vitro ADME; settings: for substrate for P-gp transporter: Caco-2; for intestinal absorption suggested by Papp(A-B): Caco-2, 5 μM
Experimental: (§1) Caco-2 cells were diluted to 6.86×10^6 cells/mL, dispensed into a 96-well HTS Transwell plate, and cultured for 14 to 18 days. 6-azasteroids at 5 μM was incubated at 37° C. for 2 hours with the Caco-2 cell monolayer in HBSS buffer (10 mM HEPES, pH 7.4) containing 5% BSA. Aliquots from donor sides (apical compartment for Ap→Bl flux, and basolateral compartment for Bl→Ap) and receiver sides (basolateral compartment for Ap→Bl flux, and apical compartment for Bl→Ap) were separated and extracted by acetonitrile or methanol containing appropriate internal standards (IS). The concentration of 6-azasteroid was determined by LC-MS/MS analysis.
(§2) Elution rate: 0.65 mL/min.
(§3) To predict absorption via oral administration, Caco-2 bidirectional permeability assay was performed (Table 8).

in vitro [10] = format: in vitro ADME; settings: human; for Papp A→B at 2 h, 5 μM: Caco-2, pH 7.4, Papp(A-B)
Experimental: as §1, §2, §3

[11] = system: M. tuberculosis constitutively expressing the luxABCDE operon; settings: isoniazid alone (Cho, S. H. et al. 2007), cited from earlier work
[12] = CDC1551, TB drug alone, read-out: Aerobic MIC
[13] = CDC1551, BDQ with 10 μM 6-azasteroid, read-out: Aerobic MIC of BDQ
[14] = CDC1551, Pa (pretomanid) with 10 μM 6-azasteroid, read-out: Aerobic MIC of Pa
[15] = 504 h, single compound, 2-log kill in 21 days, read-out: MBC

**Q.** For `C[C@H]1COc2c(N3CCN(C)CC3)c(F)cc3c(=O)c(C(=O)O)cn1c23` [Levofloxacin], which MIC (RIF-R2 (ATCC35838)) is on record?
**A.** 2.4 µM (≈ 0.867 µg/mL)

**Q.** For `COc1c(N2C[C@@H]3CCCN[C@@H]3C2)c(F)cc2c(=O)c(C(=O)O)cn(C3CC3)c12` [MOXI, moxifloxacin], which MIC (M. tuberculosis CDC1551 [1]; [12]) is on record?
**A.** 0.18 µM (≈ 0.0723 µg/mL)

**Q.** For `CCc1cc(C(N)=S)ccn1` [ETH, ethionamide], which MIC (M. tuberculosis CDC1551 [1]; CDC1551, read-out: Aerobic MIC) is on record?
**A.** 12.5 µM (≈ 2.08 µg/mL)

**Q.** Which “Isoniazid MIC shift” value (Mtb) does the source give for `CC1C[C@@]2(C)C(=CC1=O)N(C)CC1C2CC[C@@]2(C)C1CC[C@@H]2C(=O)Nc1cc(C(C)(C)C)ccc1C(C)(C)C` (some centres unmarked) [Compound 104] here?
**A.** ++ (4-8-fold ++)

**Q.** With `O=[N+]([O-])c1cn2c(n1)OC[C@@H](OCc1ccc(OC(F)(F)F)cc1)C2` [Pa, pretomanid] as the molecule, how does the MIC (M. tuberculosis CDC1551 [1]; [12]) read?
**A.** 0.00625 µM (≈ 0.00225 µg/mL)

**Q.** For `CC(C)(C)OC(=O)N1CC2C(CC[C@@]3(C)C2CC[C@@H]3C(=O)Nc2cc(C(F)(F)F)ccc2C(F)(F)F)[C@@]2(C)CCC(=O)C=C12` (some centres unmarked) [Compound 103], which “Isoniazid MIC shift” value (Mtb) is on record?
**A.** +++ (>10-fold +++)

**Q.** Which MIC (RIF-R2 (ATCC35838)) does the source give for `CO[C@H]1/C=C/O[C@@]2(C)Oc3c(C)c(O)c4c(O)c(c(/C=N/N5CCN(C)CC5)c(O)c4c3C2=O)NC(=O)/C(C)=C\C=C\[C@H](C)[C@H](O)[C@@H](C)[C@@H](O)[C@@H](C)[C@H](OC(C)=O)[C@@H]1C` [Rifampicin] here?
**A.** > 50 µM

**Q.** With `CC(C)(C)c1cc(NC(=O)[C@H]2CCC3C4CNC5=CC(=O)CC[C@]5(C)C4CC[C@@]32C)cc(C(C)(C)C)c1` (some centres unmarked) [Compound 109] as the molecule, how does the “Isoniazid MIC shift” value (Mtb) read?
**A.** ++ (4-8-fold ++)

**Q.** What does the source list for `CC(C)(C)c1ccc(C(C)(C)C)c(NC(=O)[C@H]2CCC3C4CNC5=CC(=O)CC[C@]5(C)C4CC[C@@]32C)c1` (some centres unmarked) [Compound 100]?
**A.** rapid killing with mono-treatment (M. tuberculosis CDC1551 [2]): no rapid killing in 15 days; CLint scaled at 2 μM (in vitro [3]): 37.5 mL/min/kg; microsomal CLint at 2 μM (in vitro [3]): 29.9 µL/min/mg; half-life at 2 μM [4]: 46.3 min; IC50 (hERG): 953 nM; Remaining Percentage with NADPH, 0 min [5]: 100.00%; Remaining Percentage with NADPH, 15 min [5]: 65.83%; Remaining Percentage with NADPH, 30 min [5]: 55.21%; Remaining Percentage with NADPH, 45 min [5]: 48.69%; Remaining Percentage with NADPH, 60 min [5]: 37.91%; Aerobic MIC of CLOF (M. tuberculosis CDC1551 [1]): NC^b; MIC (M. tuberculosis CDC1551 [1]; [13]): 0.01 µM; MIC (M. tuberculosis CDC1551 [1]; [14]): 0.0002 µM; T1/2 previously reported [6]: 164 min; improvement of the potency of INH ([7]; 100 at 20 μM): 10 fold; IC50 [7]: 3000 nM; IC90 [7]: > 40000 nM; Isoniazid MIC shift (Mtb): +++ (>10-fold +++); MIC ([8]; INH with 15 μM 6-azasteroid): 0.75 µM; activity under low oxygen conditions [8]: active; MBC (M. tuberculosis; INH with 12 μM 100, read-out: MBC of INH): 0.6 µM; toxicity [9]: no toxicity was observed; substrate for P-gp transporter (Caco-2 cell line): not a substrate for P-gp transporter; intestinal absorption suggested by Papp(A-B) (Caco-2 cell line; human, pH 7.4): over 50%; Papp A→B at 2 h, 5 μM (in vitro [10]): 1.4 ×10⁻⁶ cm/s; efflux ratio at 2 h, 5 μM (in vitro [10]; Caco-2, pH 7.4, efflux ratio): ~0.5

**Q.** Which MIC (M. tuberculosis CDC1551 [1]; [12]) does the source give for `NNC(=O)c1ccncc1` [INH, isoniazid] here?
**A.** 0.2 to 0.4 µM (≈ 0.0274 to 0.0549 µg/mL)

**Q.** And the IC50 [7]?
**A.** ~1500 nM

**Q.** And the IC90 [7]?
**A.** > 6000 nM

**Q.** And the MIC (RIF-R2 (ATCC35838))?
**A.** 0.6 µM (≈ 0.0823 µg/mL)

**Q.** What about the “LORA MIC” value [11] of the same molecule?
**A.** >128 µM

**Q.** What about the “LORA MIC” value ([11]; listed as isoniazid) of the same molecule?
**A.** > 128 µM

**Q.** What about the MIC (Mtb; isoniazid without 6-azasteroid, read-out: MIC for isoniazid) of the same molecule?
**A.** 0.4 µM

**Q.** What about the MIC (Mtb; read-out: MIC for isoniazid alone) of the same molecule?
**A.** 0.2 to 0.4 µM

**Q.** What about the MBC (M. tuberculosis; [15]) of the same molecule?
**A.** > 230 µM

**Q.** Which MIC (M. tuberculosis CDC1551 [1]; CDC1551, read-out: Aerobic MIC) does the source give for `CC(=O)NC[C@H]1CN(c2ccc(N3CCOCC3)c(F)c2)C(=O)O1` [LIN, linezolid] here?
**A.** 0.8 µM (≈ 0.27 µg/mL)

**Q.** Which results are given for `CCCN1CC2C(CC[C@@]3(C)C2CC[C@@H]3C(=O)Nc2cc(C(C)(C)C)ccc2C(C)(C)C)[C@@]2(C)CCC(=O)C=C12` (some centres unmarked) [Compound 114]?
**A.** effect on bactericidal activity of bedaquiline (M. tuberculosis CDC1551 [2]): improves bactericidal activity of bedaquiline; rapid killing with mono-treatment (M. tuberculosis CDC1551 [2]): no rapid killing in 15 days; microsomal CLint at 2 μM (in vitro [3]): 73.2 µL/min/mg; half-life at 2 μM [4]: 18.9 min; IC50 (hERG): 739 nM; Remaining Percentage with NADPH, 0 min [5]: 100.00%; Remaining Percentage with NADPH, 15 min [5]: 24.89%; Remaining Percentage with NADPH, 30 min [5]: 4.76%; Remaining Percentage with NADPH, 45 min [5]: 1.68%; Remaining Percentage with NADPH, 60 min [5]: 0.96%; Aerobic MIC of CLOF (M. tuberculosis CDC1551 [1]): NC^b; MIC (M. tuberculosis CDC1551 [1]; [13]): < 0.0015 µM; Isoniazid MIC shift (Mtb): +++ (>10-fold +++); MIC ([8]; INH with 55 μM 6-azasteroid): 2.75 µM; activity under low oxygen conditions [8]: active; MBC (M. tuberculosis; [15]): > 40 µM; MBC (M. tuberculosis; BDQ with 10 μM 114, read-out: MBC of BDQ): 0.025 µM; MBC (M. tuberculosis; INH with 13 μM 114, read-out: MBC of INH): 0.7 µM; substrate for P-gp transporter (Caco-2 cell line): not a substrate for P-gp transporter; intestinal absorption suggested by Papp(A-B) (Caco-2 cell line; human, pH 7.4): over 50%; Efflux Ratio (Caco-2 cell line; human, Caco-2, 2 h, 5 μM, pH 7.4): 0.48; efflux ratio at 2 h, 5 μM (in vitro [10]; Caco-2, pH 7.4, Efflux Ratio): 0.87; Papp A→B at 2 h, 5 μM (in vitro [10]): 0.85 ×10⁻⁶ cm/s; efflux ratio at 2 h, 5 μM (in vitro [10]; Caco-2, pH 7.4, efflux ratio): ~0.5

**Q.** For `COc1nc2ccc(Br)cc2cc1[C@@H](c1ccccc1)[C@@](O)(CCN(C)C)c1cccc2ccccc12` [BDQ, bedaquiline, reference compound], which MIC (M. tuberculosis CDC1551 [1]; [12]) is on record?
**A.** 0.1 µM (≈ 0.0556 µg/mL)

**Q.** What about the MBC (M. tuberculosis; [15]) of the same molecule?
**A.** 0.5 µM (≈ 0.278 µg/mL)

**Q.** Which MIC (M. tuberculosis CDC1551 [1]; [12]) does the source give for `CC(C)/N=c1\cc2n(-c3ccc(Cl)cc3)c3ccccc3nc-2cc1Nc1ccc(Cl)cc1` [CLOF, clofazimine] here?
**A.** 2 µM (≈ 0.947 µg/mL)

**Q.** Which MIC (M. tuberculosis CDC1551 [1]; [14]) does the source give for `COc1nc(OC(F)(F)F)c(NC(=O)C2CCC3C4CNC5=CC(=O)CC[C@]5(C)C4CC[C@]23C)cc1Br` (some centres unmarked) [Compound 105] here?
**A.** 0.0002 µM

**Q.** And the “Isoniazid MIC shift” value (Mtb)?
**A.** + (2-4-fold +)

**Q.** For `CN1CC2C(CC[C@@]3(C)C2CC[C@@H]3C(=O)Nc2cc(C(C)(C)C)ccc2C(C)(C)C)[C@@]2(C)CCC(=O)C=C12` (some centres unmarked) [Compound 113], which “Isoniazid MIC shift” value (Mtb) is on record?
**A.** +++ (>10-fold +++)
